The text below walks through data of article PMC6054424, “Expression and purification of a functional heteromeric GABAA receptor for structural studies” (PLoS ONE, 2018).

One may read the Kd as the equilibrium constant for the complex coming apart. A high value points to a looser complex. The stoichiometry N is the number of molecules, sites or subunits per partner or assembly.

Series [1] has as its target T1, GABAA receptor α1/β1 (α1 subunit) (Rattus norvegicus, UniProt P15431+P62813, P15431:DEL334-439/P15431:INS334GT/P62813:DEL341-408/P62813:INS341T).
T1 construct: gene Gabra1; purified α1/β1 receptor with M3/M4 loop truncations (α1-LT: Y341-P408 replaced with Thr; β1-LT: K334-K439 replaced with Gly-Thr), C-terminal His8 tag; with GABAA receptor β1 subunit (Gabrb1, P15431)
The experiment in a line: radioligand saturation binding by scintillation proximity assay on purified receptor in L-MNG.

Series [2] concerns the molecule itself. The experiment in a line: SEC; fluorescence detection SEC (FSEC) of 8-12 oocytes solubilised with 40 mM C12M; Superose6 10/300 GL in TBS pH 8.0, 1 mM C12M, 1 mM EDTA; GFP fluorescence of the tagged subunit followed; ferritin and EGFP as standards. A general note: Size exclusion chromatography separates by hydrodynamic size, large species first.

T1 sequence (P62813 with tags, fused parts or gaps DEL341-408/INS341T): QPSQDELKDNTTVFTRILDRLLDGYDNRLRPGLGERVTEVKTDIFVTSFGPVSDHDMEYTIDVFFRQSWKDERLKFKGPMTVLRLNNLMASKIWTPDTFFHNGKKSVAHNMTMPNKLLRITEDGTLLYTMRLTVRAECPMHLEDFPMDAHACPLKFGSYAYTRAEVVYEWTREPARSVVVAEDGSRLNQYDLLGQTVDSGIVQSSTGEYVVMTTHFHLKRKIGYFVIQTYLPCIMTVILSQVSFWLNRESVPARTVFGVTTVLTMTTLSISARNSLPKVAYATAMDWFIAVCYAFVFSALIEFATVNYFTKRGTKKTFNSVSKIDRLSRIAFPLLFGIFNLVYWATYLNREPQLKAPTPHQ
T1 sequence (P15431 with tags, fused parts or gaps DEL334-439/INS334GT): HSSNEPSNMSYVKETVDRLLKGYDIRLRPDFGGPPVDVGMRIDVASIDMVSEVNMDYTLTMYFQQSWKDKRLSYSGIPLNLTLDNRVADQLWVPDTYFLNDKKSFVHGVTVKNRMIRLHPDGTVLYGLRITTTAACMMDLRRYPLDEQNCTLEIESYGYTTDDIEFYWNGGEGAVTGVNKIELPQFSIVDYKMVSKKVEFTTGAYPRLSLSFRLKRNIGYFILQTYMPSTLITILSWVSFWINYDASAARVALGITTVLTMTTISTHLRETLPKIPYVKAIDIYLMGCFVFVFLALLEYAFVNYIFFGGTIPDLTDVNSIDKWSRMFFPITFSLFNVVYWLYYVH

`NCc1cc(=O)[nH]o1` [muscimol] yielded an equilibrium dissociation constant (Kd) in series [1] of 24 ± 1.1 nM.

B1: GluClα-EGFP (α subunit of the glutamate-gated chloride channel from C. elegans, EGFP in the M3/M4 loop) (receptor, UniProt G5EBR3 21-461, looked up)
chain: QQARTKSQDIFEDDNDNGTTTLESLARLTSPIHIPIEQPQTSDSKILAHLFTSGYDFRVRPPTDNGGPVVVSVNMLLRTISKIDVVNMEYSAQLTLRESWIDKRLSYGVKGDGQPDFVILTVGHQIWMPDTFFPNEKQAYKHTIDKPNVLIRIHNDGTVLYSVRISLVLSCPMYLQYYPMDVQQCSIDLASYAYTTKDIEYLWKEHSPLQLKVGLSSSLPSFQLTNTSTTYCTSVTNTGIYSCLRTTIQLKREFSFYLLQLYIPSCMLVIVSWVSFWFDRTAIPARVTLGVTTLLTMTAQSAGINSQLPPVSYIKAIDVWIGACMTFIFCALLEFALVNHIANKQGVERKARTEREKAEIPLLQNLHNDVPTKVFNQEEKVRTVPLNRRQMNSFLNLLETKTEWNDISKRVDLISRALFPVLFFVFNILYWSRFGQQNVLF
notes: glutamate-gated chloride channel α subunit (GluClα), C. elegans; source: Xenopus oocytes injected with synthetic mRNA, in C12M-solubilised oocytes; not shown: EGFP, internal (M3/M4 loop)
In the case of B1, the “stoichiometry N” value in series [2] is 5.
